Measured values: ChEMBL document CHEMBL4627327, “Antibacterial activity of singly and doubly modified salinomycin derivatives” (Bioorg Med Chem Lett, 2020)
Converted amounts (≈) assume the structure as drawn. The source made the active and inactive calls. No cut-off for these calls is given here.

How the values were obtained:
[1] = system: Staphylococcus epidermidis; assay: Antibacterial activity against methicillin-resistant Staphylococcus epidermidis isolate 610 assessed as bacterial growth inhibition measured after 18 hrs by CLSI protocol based two-fold serial microdilution method; type: functional; conditions: isolate 610, 18 h
[2] = Genotoxicity in rec negative Bacillus subtilis M45 assessed as diameter of inhibition zone at 256 ug measured after 24 hrs by rec-assay; type: toxicity; conditions: in vivo
Staphylococcus aureus [3] = assay: Antibacterial activity against Staphylococcus aureus ATCC 6358 assessed as bacterial growth inhibition measured after 18 hrs by CLSI protocol based two-fold serial microdilution method; type: functional
Staphylococcus aureus [4] = assay: Antibacterial activity against methicillin-resistant Staphylococcus aureus isolate 621 assessed as bacterial growth inhibition measured after 18 hrs by CLSI protocol based two-fold serial microdilution method; type: functional; conditions: isolate 621, 18 h
[5] = Genotoxicity in rec-positive Bacillus subtilis H17 assessed as diameter of inhibition zone at 256 ug measured after 24 hrs by rec-assay; type: toxicity; conditions: in vivo
[6] = system: Staphylococcus epidermidis; assay: Antibacterial activity against methicillin-resistant Staphylococcus epidermidis isolate 660 assessed as bacterial growth inhibition measured after 18 hrs by CLSI protocol based two-fold serial microdilution method; type: functional; conditions: isolate 660, 18 h
Escherichia coli [7] = assay: Antibacterial activity against Escherichia coli NCTC 8196 assessed as bacterial growth inhibition measured after 18 hrs by CLSI protocol based two-fold serial microdilution method; type: functional, organism-based
[8] = system: Staphylococcus epidermidis; assay: Inhibition of biofilm formation in Staphylococcus epidermidis ATCC 35984 at 1 to 8 ug/ml measured after 24 hrs by crystal violet staining based assay; type: functional, organism-based
Enterococcus hirae = assay: Antibacterial activity against Enterococcus hirae ATCC 10541 assessed as bacterial growth inhibition measured after 18 hrs by CLSI protocol based two-fold serial microdilution method; type: functional
Staphylococcus aureus [9] = assay: Antibacterial activity against Staphylococcus aureus ATCC 25923 assessed as bacterial growth inhibition measured after 18 hrs by CLSI protocol based two-fold serial microdilution method; type: functional
Pseudomonas aeruginosa [10] = assay: Antibacterial activity against Pseudomonas aeruginosa ATCC 27853 assessed as bacterial growth inhibition measured after 18 hrs by CLSI protocol based two-fold serial microdilution method; type: functional, organism-based
[11] = system: Staphylococcus epidermidis; assay: Antibacterial activity against methicillin-resistant Staphylococcus epidermidis isolate 603 assessed as bacterial growth inhibition measured after 18 hrs by CLSI protocol based two-fold serial microdilution method; type: functional; conditions: isolate 603, 18 h
[12] = system: Staphylococcus epidermidis; assay: Antibacterial activity against methicillin-resistant Staphylococcus epidermidis isolate 574 assessed as bacterial growth inhibition measured after 18 hrs by CLSI protocol based two-fold serial microdilution method; type: functional; conditions: isolate 574, 18 h
Staphylococcus aureus [13] = assay: Antibacterial activity against methicillin-resistant Staphylococcus aureus isolate 770 assessed as bacterial growth inhibition measured after 18 hrs by CLSI protocol based two-fold serial microdilution method; type: functional; conditions: isolate 770, 18 h
[14] = system: Staphylococcus epidermidis; assay: Antibacterial activity against Staphylococcus epidermidis ATCC 35984 assessed as bacterial growth inhibition measured after 18 hrs by CLSI protocol based two-fold serial microdilution method; type: functional
[15] = system: Staphylococcus epidermidis; assay: Antibacterial activity against methicillin-resistant Staphylococcus epidermidis isolate 609 assessed as bacterial growth inhibition measured after 18 hrs by CLSI protocol based two-fold serial microdilution method; type: functional; conditions: isolate 609, 18 h
Staphylococcus aureus [16] = assay: Antibacterial activity against methicillin-resistant Staphylococcus aureus isolate 612 assessed as bacterial growth inhibition measured after 18 hrs by CLSI protocol based two-fold serial microdilution method; type: functional; conditions: isolate 612, 18 h
Staphylococcus aureus [17] = assay: Antibacterial activity against methicillin-resistant Staphylococcus aureus isolate 584 assessed as bacterial growth inhibition measured after 18 hrs by CLSI protocol based two-fold serial microdilution method; type: functional; conditions: isolate 584, 18 h
[18] = system: Staphylococcus epidermidis; assay: Inhibition of biofilm formation in Staphylococcus epidermidis ATCC 12228 at 1 to 8 ug/ml measured after 24 hrs by crystal violet staining based assay; type: functional, organism-based
[19] = system: Staphylococcus epidermidis; assay: Antibacterial activity against methicillin-resistant Staphylococcus epidermidis isolate 602 assessed as bacterial growth inhibition measured after 18 hrs by CLSI protocol based two-fold serial microdilution method; type: functional; conditions: isolate 602, 18 h
Staphylococcus aureus [20] = assay: Antibacterial activity against Staphylococcus aureus NCTC 4163 assessed as bacterial growth inhibition measured after 18 hrs by CLSI protocol based two-fold serial microdilution method; type: functional
[21] = system: Staphylococcus epidermidis; assay: Antibacterial activity against methicillin-resistant Staphylococcus epidermidis isolate 654 assessed as bacterial growth inhibition measured after 18 hrs by CLSI protocol based two-fold serial microdilution method; type: functional; conditions: isolate 654, 18 h
Staphylococcus aureus [22] = assay: Antibacterial activity against methicillin-resistant Staphylococcus aureus isolate 583 assessed as bacterial growth inhibition measured after 18 hrs by CLSI protocol based two-fold serial microdilution method; type: functional; conditions: isolate 583, 18 h
Staphylococcus aureus [23] = assay: Antibacterial activity against methicillin-resistant Staphylococcus aureus isolate 750 assessed as bacterial growth inhibition measured after 18 hrs by CLSI protocol based two-fold serial microdilution method; type: functional; conditions: isolate 750, 18 h
Staphylococcus aureus [24] = assay: Antibacterial activity against methicillin-resistant Staphylococcus aureus isolate 620 assessed as bacterial growth inhibition measured after 18 hrs by CLSI protocol based two-fold serial microdilution method; type: functional; conditions: isolate 620, 18 h
Escherichia coli [25] = assay: Antibacterial activity against Escherichia coli ATCC 25922 assessed as bacterial growth inhibition measured after 18 hrs by CLSI protocol based two-fold serial microdilution method; type: functional, organism-based
Micrococcus luteus = assay: Antibacterial activity against Micrococcus luteus ATCC 9341 assessed as bacterial growth inhibition measured after 18 hrs by CLSI protocol based two-fold serial microdilution method; type: functional
Staphylococcus aureus [26] = assay: Antibacterial activity against Staphylococcus aureus ATCC 29213 assessed as bacterial growth inhibition measured after 18 hrs by CLSI protocol based two-fold serial microdilution method; type: functional
Pseudomonas aeruginosa [27] = assay: Antibacterial activity against Pseudomonas aeruginosa ATCC 15442 assessed as bacterial growth inhibition measured after 18 hrs by CLSI protocol based two-fold serial microdilution method; type: functional, organism-based
[28] = system: Staphylococcus epidermidis; assay: Antibacterial activity against Staphylococcus epidermidis ATCC 12228 assessed as bacterial growth inhibition measured after 18 hrs by CLSI protocol based two-fold serial microdilution method; type: functional

CC[C@@H](C(=O)[C@@H](C)[C@@H](O)[C@H](C)[C@@H]1O[C@@H]([C@@H](CC)C(=O)ONC(=O)c2ccccc2O)CC[C@@H]1C)[C@H]1O[C@]2(C=CC(=O)[C@]3(CC[C@@](C)([C@H]4CC[C@](O)(CC)[C@H](C)O4)O3)O2)[C@H](C)C[C@@H]1C
MIC [1]: 4.52 µM (≈ 4 µg/mL) | diameter of the inhibition zone (DIZ) [2]: 19 mm | Activity (Staphylococcus aureus [3]): Active | MIC (Staphylococcus aureus [4]): 4.52 µM (≈ 4 µg/mL) | diameter of the inhibition zone (DIZ) [5]: 17 mm | MIC [6]: 72.4 µM (≈ 64 µg/mL) | Activity (Escherichia coli [7]): inactive | inhibition [8]: Active | Activity (Enterococcus hirae): Active | Activity (Staphylococcus aureus [9]): Active | Activity (Pseudomonas aeruginosa [10]): inactive | MIC [11]: 2.26 µM (≈ 2 µg/mL) | MIC [12]: 2.26 µM (≈ 2 µg/mL) | MIC (Staphylococcus aureus [13]): 72.4 µM (≈ 64 µg/mL) | Activity [14]: Active | MIC [15]: 2.26 µM (≈ 2 µg/mL) | MIC (Staphylococcus aureus [16]): 4.52 µM (≈ 4 µg/mL) | MIC (Staphylococcus aureus [17]): 72.4 µM (≈ 64 µg/mL) | inhibition [18]: Active | MIC [19]: 4.52 µM (≈ 4 µg/mL) | Activity (Staphylococcus aureus [20]): Active | MIC [21]: 72.4 µM (≈ 64 µg/mL) | MIC (Staphylococcus aureus [22]): 36.2 µM (≈ 32 µg/mL) | MIC (Staphylococcus aureus [23]): 4.52 µM (≈ 4 µg/mL) | MIC (Staphylococcus aureus [24]): 4.52 µM (≈ 4 µg/mL) | Activity (Escherichia coli [25]): inactive | Activity (Micrococcus luteus): Active | Activity (Staphylococcus aureus [26]): Active | Activity (Pseudomonas aeruginosa [27]): inactive | Activity [28]: Active
